Literature values as cited in patent publication US4540572A, “Gel-like ointment containing indometacin” (Mepha AG, priority 1983, dated 1985).

Tested on: human skin
Details: from the conventional ointment bases

COc1ccc2c(c1)c(CC(=O)O)c(C)n2C(=O)c1ccc(Cl)cc1 [indometacin]
absorption through the human skin: lack of its absorption
